Measurements from ChEMBL document CHEMBL1201862, “PubChem BioAssay data set” (2004).
Activity calls are given as the source filed them.

Columns and labels:
[1] = IC50 of insulin release inhibition, rat insulinoma INS-1E line, 5 mM glucose, cell-based (AID 1117331); format: functional
cells = format: functional, cell-based; settings: INS-1E
[2] = HIV-1 Vif–A3G interaction blockers – biochemical, TR-FRET, GST-Vif 1-94, biotin-A3G peptide, dose response retest, primary screen (AID 1117319); format: functional;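 further: TR-FRET signal of purified GST-Vif binding a biotinylated A3G peptide; inhibitors lower the FRET signal by blocking Vif and A3G binding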
Protein Tat = Protein Tat (Human immunodeficiency virus type 1 group M subtype B (isolate HXB2)(HIV-1), UniProt P04608); format: functional;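 further: tat binding to TAR RNA read out by fluorescence polarization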
[3] = target: T1, Tyrosine-protein phosphatase non-receptor type 7 (Homo sapiens, UniProt P35236); assay: inhibition of hematopoietic tyrosine phosphatase HePTP – biochemical, set 2, SAR follow-up (AID 449736); format: functional
T1 sequence (P35236 whole entry): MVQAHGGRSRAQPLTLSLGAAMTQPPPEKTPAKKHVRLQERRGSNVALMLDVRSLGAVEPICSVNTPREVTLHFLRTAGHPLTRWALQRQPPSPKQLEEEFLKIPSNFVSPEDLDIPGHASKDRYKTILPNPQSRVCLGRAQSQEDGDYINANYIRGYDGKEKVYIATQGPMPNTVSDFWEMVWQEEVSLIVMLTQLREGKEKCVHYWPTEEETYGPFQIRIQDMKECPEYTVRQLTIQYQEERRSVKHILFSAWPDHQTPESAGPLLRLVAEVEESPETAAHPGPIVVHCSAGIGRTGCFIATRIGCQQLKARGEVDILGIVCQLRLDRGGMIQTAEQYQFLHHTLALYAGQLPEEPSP

[4] = target: T2, Tyrosine-protein phosphatase non-receptor type 22 (Homo sapiens, UniProt Q9Y2R2); assay: SAR LYP1 Fluorescent Assay using OMFP substrate for In Vitro dose response studies - Set 3. [Related pubchem assays (depositor defined):AID1779, AID1784, AID2140, AID2686]; format: functional
T2 sequence (Q9Y2R2 whole entry): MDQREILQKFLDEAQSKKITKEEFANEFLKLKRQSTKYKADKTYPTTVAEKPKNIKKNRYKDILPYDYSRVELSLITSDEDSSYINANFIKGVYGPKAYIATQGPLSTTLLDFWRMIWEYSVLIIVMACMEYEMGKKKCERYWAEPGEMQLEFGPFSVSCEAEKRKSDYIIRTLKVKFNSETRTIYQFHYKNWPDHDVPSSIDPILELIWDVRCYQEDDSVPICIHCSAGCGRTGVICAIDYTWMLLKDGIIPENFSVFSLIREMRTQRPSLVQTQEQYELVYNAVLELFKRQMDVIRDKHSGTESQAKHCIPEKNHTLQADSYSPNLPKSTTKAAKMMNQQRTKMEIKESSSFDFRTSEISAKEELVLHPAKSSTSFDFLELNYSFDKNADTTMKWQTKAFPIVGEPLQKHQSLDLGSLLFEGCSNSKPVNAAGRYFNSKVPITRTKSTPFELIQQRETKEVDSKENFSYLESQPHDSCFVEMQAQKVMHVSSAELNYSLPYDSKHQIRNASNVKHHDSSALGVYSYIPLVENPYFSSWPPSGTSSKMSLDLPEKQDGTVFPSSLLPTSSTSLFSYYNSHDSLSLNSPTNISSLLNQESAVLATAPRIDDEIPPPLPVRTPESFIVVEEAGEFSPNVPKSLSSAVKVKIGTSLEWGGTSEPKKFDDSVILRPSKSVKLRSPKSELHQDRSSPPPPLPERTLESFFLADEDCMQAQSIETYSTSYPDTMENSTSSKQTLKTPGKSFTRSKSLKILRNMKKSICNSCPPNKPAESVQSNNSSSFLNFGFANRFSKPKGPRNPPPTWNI

[5] = target: Tyrosine-protein phosphatase non-receptor type 12 (Homo sapiens, UniProt Q05209); assay: SAR Selectivity Analysis of small molecule inhibitors of PEST using pCAP in a fluorescence assay. [Related pubchem assays (depositor defined):AID1779, AID1784, AID2135]; format: functional
[6] = target: G-protein coupled receptor 35 (Homo sapiens, UniProt Q9HC97); assay: SAR Analysis for the identification of Selective Antagonists of ERK1/2 Activity in GPR35-Overexpressing U2OS Cells. [Related pubchem assays: 2079, 2058 ]; format: functional, cell-based
[7] = target: T2, Tyrosine-protein phosphatase non-receptor type 22; assay: inhibition of lymphoid tyrosine phosphatase LYP – biochemical, pCAP fluorogenic substrate, fluorescence, set 3, SAR follow-up (AID 449727); format: functional
[8] = target: G-protein coupled receptor 55 (Homo sapiens, UniProt Q9Y2T6); assay: blockers of GPR55 signalling, imaged – imaging, image-based, counter-screen for GPR35 antagonist project, SAR follow-up (AID 2397); format: functional
[9] = toxicity to human HepG2 hepatoma cells – cell-based, plate reader, dry powder samples, cytotoxicity control, dose response (AID 1159569); format: functional;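 further: inhibitor potency with signal falling toward the positive control level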
[10] = growth inhibition of yeast DHODH-expressing 3D7 parasites – SYBR Green, dry powder samples, dose response (AID 1159570); format: functional, cell-based;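 further: parasite growth measured after 72 hours of compound exposure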
[11] = growth inhibition of PfATP4-mutant resistant parasites – NITD609-resistant line, SYBR Green, dry powder, dose response (AID 1159571); format: functional, cell-based;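 further: parasites synchronized at ring stage by sorbitol before testing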
[12] = Dd2 malaria parasite growth inhibition potency – SYBR Green, dry powder samples, dose response (AID 1159566); format: functional, cell-based;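 further: potency for growth inhibition with lower SYBR green DNA signal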
[13] = P. falciparum Dd2 growth inhibitors, dose response, SYBR Green, cherry-picked samples (AID 1159567); format: functional, cell-based

Sequence of G-protein coupled receptor 55 (Q9Y2T6 whole entry): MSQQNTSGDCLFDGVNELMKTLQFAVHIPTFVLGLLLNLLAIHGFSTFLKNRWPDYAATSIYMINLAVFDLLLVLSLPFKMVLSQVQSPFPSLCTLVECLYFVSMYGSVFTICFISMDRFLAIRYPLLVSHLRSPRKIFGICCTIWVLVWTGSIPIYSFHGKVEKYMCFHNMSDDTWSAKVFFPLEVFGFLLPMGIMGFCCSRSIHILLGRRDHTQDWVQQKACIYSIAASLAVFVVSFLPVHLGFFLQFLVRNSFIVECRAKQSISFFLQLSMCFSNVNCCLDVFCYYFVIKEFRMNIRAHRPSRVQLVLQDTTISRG
Sequence of G-protein coupled receptor 35 (Q9HC97 whole entry): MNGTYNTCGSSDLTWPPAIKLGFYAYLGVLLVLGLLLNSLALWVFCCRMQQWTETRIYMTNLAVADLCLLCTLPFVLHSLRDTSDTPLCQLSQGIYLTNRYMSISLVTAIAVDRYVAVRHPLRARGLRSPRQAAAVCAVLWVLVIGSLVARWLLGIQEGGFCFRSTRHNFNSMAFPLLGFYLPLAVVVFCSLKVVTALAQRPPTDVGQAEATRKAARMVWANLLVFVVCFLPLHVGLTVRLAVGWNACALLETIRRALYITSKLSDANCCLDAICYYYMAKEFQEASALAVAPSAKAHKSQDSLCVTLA
Sequence of Protein Tat (P04608 whole entry): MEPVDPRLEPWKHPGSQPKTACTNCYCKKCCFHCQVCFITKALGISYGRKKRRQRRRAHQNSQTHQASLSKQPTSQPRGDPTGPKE
Sequence of Tyrosine-protein phosphatase non-receptor type 12 (Q05209 whole entry): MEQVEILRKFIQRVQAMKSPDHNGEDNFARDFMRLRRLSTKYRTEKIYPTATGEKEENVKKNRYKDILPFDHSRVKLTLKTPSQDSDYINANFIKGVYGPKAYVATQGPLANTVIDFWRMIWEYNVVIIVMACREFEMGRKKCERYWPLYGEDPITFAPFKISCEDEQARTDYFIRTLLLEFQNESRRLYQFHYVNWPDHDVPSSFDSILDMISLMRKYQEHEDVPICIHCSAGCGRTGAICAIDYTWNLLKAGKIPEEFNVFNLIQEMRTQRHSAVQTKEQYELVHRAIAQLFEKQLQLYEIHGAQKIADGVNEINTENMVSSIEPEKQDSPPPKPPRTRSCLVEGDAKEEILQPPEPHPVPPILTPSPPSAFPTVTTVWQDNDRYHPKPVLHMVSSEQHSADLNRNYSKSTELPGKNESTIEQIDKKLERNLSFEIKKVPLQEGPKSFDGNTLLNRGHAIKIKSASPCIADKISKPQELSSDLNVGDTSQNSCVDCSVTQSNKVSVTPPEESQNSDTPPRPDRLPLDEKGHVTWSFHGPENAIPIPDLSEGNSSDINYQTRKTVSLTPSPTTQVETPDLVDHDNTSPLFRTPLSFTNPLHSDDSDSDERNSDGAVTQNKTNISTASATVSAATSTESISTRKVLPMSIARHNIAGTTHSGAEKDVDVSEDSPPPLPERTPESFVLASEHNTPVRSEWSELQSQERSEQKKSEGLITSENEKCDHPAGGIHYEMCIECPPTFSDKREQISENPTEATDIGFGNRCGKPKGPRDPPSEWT

CCN(CC)CCNC(C(=O)OCCC(C)C)c1ccccc1 (stereo not given) [CAMYLOFIN]
IC50 [1]: 24.8 µM (inactive) | IC50 (cells): > 33.3 µM (inactive)

COc1cc(/C=C(\CC(=O)O)c2nc3ccccc3s2)cc(OC)c1O
IC50 [2]: > 100 µM (active) | IC50 (Protein Tat): > 100 µM (active)

CCOC(=O)c1ccc(NC(=O)CCCN2C(=O)/C(=C/c3ccc(C)cc3)SC2=S)cc1
IC50 [3]: > 100 µM (inactive) | IC50 [4]: > 100 µM (inactive) | IC50 [5]: 96.4 µM (active) | IC50 [6]: 21.4 µM (not active) | IC50 [7]: > 100 µM (inactive) | IC50 [8]: > 32 µM (inactive)

Cc1ccc(S(=O)(=O)N(C)C[C@H]2OCc3ccccc3-c3c(n(C)c4ccccc34)C(=O)N([C@@H](C)CO)C[C@H]2C)cc1
AC50 [9]: 9.17 µM (active) | AC50 [10]: 3.19 µM (active) | AC50 [11]: 2.63 µM (active) | AC50 [12]: 2.01 µM (active) | AC50 [13]: 2.23 µM (active)
